The Kinase Knowledgebase extract (Sharma et al. 2016)
pIC50: −log10 of the molar value.

Target: CDK2 (UniProt P24941)
Assay: Enzyme Assay

Question: How did the pIC50 turn out when `O=C1Nc2ncc(-c3ccsc3)cc2/C1=C/Nc1ccc2cn[nH]c2c1` was run?
Answer: 6.00 to 7.00

Question: How did the pIC50 turn out when `NS(=O)(=O)c1ccc(N/C=C2\C(=O)Nc3ncccc32)cc1` was run?
Answer: 6.00 to 7.00

Question: With `NS(=O)(=O)c1ccc(N/C=C2\C(=O)Nc3ncc(-c4ccccc4)cc32)cc1` as the molecule, how does the pIC50 read?
Answer: 5.00 to 6.00

Question: With `O=C1Nc2ncc(-c3ccco3)cc2/C1=C/Nc1ccc2cn[nH]c2c1` as the molecule, how does the pIC50 read?
Answer: 5.00 to 6.00

Question: With `NS(=O)(=O)c1ccc(N/C=C2\C(=O)Nc3cnccc32)cc1` as the molecule, how does the pIC50 read?
Answer: 7.00 to 8.00

Question: With `NS(=O)(=O)c1ccc(N/C=C2\C(=O)Nc3ncc(-c4ccco4)cc32)cc1` as the molecule, how does the pIC50 read?
Answer: 7.00 to 8.00

Question: How did the pIC50 turn out when `O=C1Nc2ncc(Br)cc2/C1=C/Nc1ccc2ncccc2c1` was run?
Answer: 7.00 to 8.00

Question: With `NS(=O)(=O)c1ccc(N/C=C2\C(=O)Nc3nc(Cl)ccc32)cc1` as the molecule, how does the pIC50 read?
Answer: 6.00 to 7.00

Question: How did the pIC50 turn out when `NS(=O)(=O)c1ccc(N/C=C2\C(=O)Nc3ncc(-c4ccsc4)cc32)cc1` was run?
Answer: 6.00 to 7.00

Question: `CCOC(=O)c1cnc2c(c1)/C(=C/Nc1ccc3cn[nH]c3c1)C(=O)N2` was tested. Which pIC50 did it give?
Answer: 7.00 to 8.00

Question: `CCOC(=O)c1cnc2c(c1)/C(=C/Nc1ccc(S(N)(=O)=O)cc1)C(=O)N2` was tested. Which pIC50 did it give?
Answer: 7.00 to 8.00

Question: With `CCOC(=O)c1cnc2c(c1)/C(=C\Nc1ccc3ncccc3c1)C(=O)N2` as the molecule, how does the pIC50 read?
Answer: 6.00 to 7.00

Question: With `O=C1Nc2ncc(Br)cc2/C1=C/Nc1ccc2cn[nH]c2c1` as the molecule, how does the pIC50 read?
Answer: 7.00 to 8.00

Question: How did the pIC50 turn out when `O=C1Nc2nc(Cl)ccc2/C1=C/Nc1ccc2cn[nH]c2c1` was run?
Answer: 6.00 to 7.00

Question: How did the pIC50 turn out when `NS(=O)(=O)c1ccc(N/C=C2\C(=O)Nc3ccncc32)cc1` was run?
Answer: 7.00 to 8.00

Question: `NS(=O)(=O)c1ccc(N/C=C2\C(=O)Nc3ncc(Br)cc32)cc1` was tested. Which pIC50 did it give?
Answer: 7.00 to 8.00
